Data: PubChem BioAssay AID256 (DTP/NCI, 2004)
Where “and” joins values, the source holds several entries; their conditions need not be identical. Identical values can stand only once. Toxic doses and inconclusive results are not listed. The calls were made as follows: active = survival T/C of 150% or more; inactive = T/C below 125% in these data.

Tested on: CD2F1 mice, L1210 leukemia ip, survival T/C
Assay: NCI In Vivo Anticancer Drug Screen. Data for tumor model L1210 Leukemia (intraperitoneal) in CD2F1 (CDF1) mice
Conditions: higher = longer survival
Procedure, shortened: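 Vehicle-treated tumor-bearing mice served as controls (C) for compound-treated mice (T). Reported figure is T divided by C.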

[1] = endpoint: mean survival time, dose: 50.0 mg/kg/injection, schedule: Q04DX002 (ip), vehicle: saline with Tween-80
[2] = endpoint: mean survival time, dose: 100.0 mg/kg/injection, schedule: Q04DX002 (ip), vehicle: saline with Tween-80
[3] = endpoint: mean survival time, dose: 100.0 mg/kg/injection, schedule: Q01DX001 (ip), vehicle: saline with Tween-80
[4] = endpoint: mean survival time, dose: 200.0 mg/kg/injection, schedule: Q01DX001 (ip), vehicle: saline with Tween-80
[5] = endpoint: mean survival time, dose: 400.0 mg/kg/injection, schedule: Q01DX001 (ip), vehicle: saline with Tween-80
[6] = endpoint: mean survival time, dose: 100.0 mg/kg/injection, schedule: Q01DX009 (ip), vehicle: saline with Tween-80
[7] = endpoint: mean survival time, dose: 200.0 mg/kg/injection, schedule: Q01DX009 (ip), vehicle: saline with Tween-80
[8] = endpoint: mean survival time, dose: 400.0 mg/kg/injection, schedule: Q01DX009 (ip), vehicle: saline with Tween-80
[9] = endpoint: mean survival time, dose: 25.0 mg/kg/injection, schedule: Q01DX009 (ip), vehicle: Klucel (hydroxypropylcellulose) (HPC)
[10] = endpoint: mean survival time, dose: 50.0 mg/kg/injection, schedule: Q01DX009 (ip), vehicle: Klucel (hydroxypropylcellulose) (HPC)
[11] = endpoint: mean survival time, dose: 100.0 mg/kg/injection, schedule: Q01DX009 (ip), vehicle: Klucel (hydroxypropylcellulose) (HPC)
[12] = endpoint: mean survival time, dose: 100.0 mg/kg/injection, schedule: Q04DX003 (ip), vehicle: saline with Tween-80
[13] = endpoint: mean survival time, dose: 200.0 mg/kg/injection, schedule: Q04DX003 (ip), vehicle: saline with Tween-80
[14] = endpoint: mean survival time, dose: 400.0 mg/kg/injection, schedule: Q04DX003 (ip), vehicle: saline with Tween-80
[15] = endpoint: mean survival time, dose: 75.0 mg/kg/injection, schedule: Q01DX001 (ip), vehicle: saline
[16] = endpoint: mean survival time, dose: 50.0 mg/kg/injection, schedule: Q01DX009 (ip), vehicle: saline with Tween-80
[17] = endpoint: mean survival time, dose: 6.25 mg/kg/injection, schedule: Q04DX003 (ip), vehicle: saline with Tween-80
[18] = endpoint: mean survival time, dose: 12.5 mg/kg/injection, schedule: Q04DX003 (ip), vehicle: saline with Tween-80
[19] = endpoint: mean survival time, dose: 200.0 mg/kg/injection, schedule: Q04DX002 (ip), vehicle: saline with Tween-80
[20] = endpoint: mean survival time, dose: 400.0 mg/kg/injection, schedule: Q04DX002 (ip), vehicle: saline with Tween-80
[21] = endpoint: mean survival time, dose: 25.0 mg/kg/injection, schedule: Q01DX009 (ip), vehicle: saline with Tween-80

Measured: T/C

[Co].c1ccc2c3[n-]c(c2c1)/N=c1\[n-]/c(c2ccccc12)=N\c1[n-]c(c2ccccc12)/N=c1\[n-]/c(c2ccccc12)=N\3
inactive: endpoint: mean survival time, dose: 25.0 mg/kg/injection, schedule: Q04DX002 (ip), vehicle: saline with Tween-80 90 % of control | [1] 93 % of control | [2] 90 % of control

Cc1ccc(N2C(=O)CSC2=S)c(Br)c1
inactive: [3] 101 % of control | [4] 101 % of control | [5] 106 % of control

O=C1CCC(OC(=O)c2ccccc2)CCN1 (stereo not drawn)
inactive: [6] 87 % of control | [7] 98 % of control | [8] 90 % of control

C=C(Br)CNC(=O)Nc1c2ccccc2nc2ccccc12
inactive: [9] 97 % of control | [10] 98 % of control | [11] 97 % of control

Cn1c(N)n[nH]c1=S
inactive: [12] 93 % of control | [13] 108 % of control | [14] 88 % of control

NC(=O)C(NCCn1cnc2c(N)ncnc21)C(N)=O
inactive: endpoint: mean survival time, dose: 1.25 mg/kg/injection, schedule: Q01DX005 (ip), vehicle: water 92 % of control | endpoint: mean survival time, dose: 2.5 mg/kg/injection, schedule: Q01DX005 (ip), vehicle: water 92 % of control | endpoint: mean survival time, dose: 5.0 mg/kg/injection, schedule: Q01DX005 (ip), vehicle: water 92 % of control | endpoint: mean survival time, dose: 10.0 mg/kg/injection, schedule: Q01DX005 (ip), vehicle: water 95 % of control | endpoint: mean survival time, dose: 20.0 mg/kg/injection, schedule: Q01DX005 (ip), vehicle: water 95 % of control

CCc1c(CC(=O)O)c2cc(C)ccc2n1Cc1ccc(Cl)cc1
inactive: endpoint: mean survival time, dose: 3.12 mg/kg/injection, schedule: Q01DX009 (ip), vehicle: Klucel (hydroxypropylcellulose) (HPC) 91 % of control | endpoint: mean survival time, dose: 6.25 mg/kg/injection, schedule: Q01DX009 (ip), vehicle: Klucel (hydroxypropylcellulose) (HPC) 104 % of control | endpoint: mean survival time, dose: 12.5 mg/kg/injection, schedule: Q01DX009 (ip), vehicle: Klucel (hydroxypropylcellulose) (HPC) 107 % of control | [9] 102 % of control | [10] 91 % of control | [11] 96 % of control

CO[C@@]12[C@@H]3N[C@@H]3CN1C1=C(C(=O)C(Nc3nc(C)cs3)=C(C)C1=O)[C@@H]2COC(N)=O
inactive: endpoint: mean survival time, dose: 1.5 mg/kg/injection, schedule: Q01DX001 (ip), vehicle: water 116 % of control and 112 % of control | endpoint: mean survival time, dose: 3.0 mg/kg/injection, schedule: Q01DX001 (ip), vehicle: water 115 % of control | endpoint: mean survival time, dose: 6.0 mg/kg/injection, schedule: Q01DX001 (ip), vehicle: water 121 % of control

OC1(C#CCC2(O)CCCCC2)CCCCC1
inactive: [3] 91 % of control | [4] 91 % of control | [5] 93 % of control

CC1CC(C)(C)CC(=O)O1 (stereo not drawn)
inactive: [15] 101 % of control

CCOC(=O)C(CNc1ccccc1)C(=O)OCC
inactive: [12] 101 % of control | [13] 104 % of control | [14] 104 % of control

CCCCCCCCCCCCCCCC(=O)NCCNC(=O)CCCCCCCCCCCCCCC
inactive: [16] 92 % of control | [15] 98 % of control | [6] 90 % of control | endpoint: mean survival time, dose: 150.0 mg/kg/injection, schedule: Q01DX001 (ip), vehicle: saline 93 % of control | [7] 94 % of control | endpoint: mean survival time, dose: 300.0 mg/kg/injection, schedule: Q01DX001 (ip), vehicle: saline 98 % of control

CC(CO)CCC(=O)C(C)C1C(=O)CC2[C@H]3CC=C4C[C@H](O)CC[C@@]4(C)C3CC[C@@]12C (stereo partly drawn)
inactive: endpoint: mean survival time, dose: 50.0 mg/kg/injection, schedule: Q01DX001 (ip), vehicle: saline with Tween-80 94 % of control | [3] 97 % of control | [4] 95 % of control

c1ccc(CN(c2ccccc2)C2CCCCC2)cc1
inactive: endpoint: mean survival time, dose: 100.0 mg/kg/injection, schedule: Q04DX003 (ip), vehicle: Klucel (hydroxypropylcellulose) (HPC) 91 % of control | endpoint: mean survival time, dose: 200.0 mg/kg/injection, schedule: Q04DX003 (ip), vehicle: Klucel (hydroxypropylcellulose) (HPC) 91 % of control

CC(=O)NC(=O)NC(Cc1ccccc1)c1ccccc1 (stereo not drawn)
inactive: [6] 98 % of control | [12] 104 % of control | [7] 92 % of control | [13] 96 % of control | [8] 95 % of control | [14] 108 % of control

CC(=O)Nc1ccc(S(=O)(=O)N(CCO)CCO)cc1
inactive: [3] 100 % of control | endpoint: mean survival time, dose: 100.0 mg/kg/injection, schedule: Q01DX009 (ip), vehicle: saline sonified 100 % of control | [4] 102 % of control | endpoint: mean survival time, dose: 200.0 mg/kg/injection, schedule: Q01DX009 (ip), vehicle: saline sonified 95 % of control | [5] 98 % of control | endpoint: mean survival time, dose: 400.0 mg/kg/injection, schedule: Q01DX009 (ip), vehicle: saline sonified 97 % of control

C[N+](C)(C)C1(Cc2ccc(Br)cc2)c2ccccc2-c2ccccc21
inactive: [17] 88 % of control | [18] 88 % of control | endpoint: mean survival time, dose: 25.0 mg/kg/injection, schedule: Q04DX003 (ip), vehicle: saline with Tween-80 87 % of control | [12] 92 % of control

COC(=O)c1ccccc1NCCNc1ccccc1C(=O)OC
inactive: [1] 100 % of control | [19] 95 % of control | [20] 88 % of control

CC(=O)C(C(=N)C#N)C(C)=O
inactive: [1] 101 % of control | [2] 89 % of control | [19] 89 % of control

O=C(OCCC[P+](c1ccccc1)(c1ccccc1)c1ccccc1)c1ccccc1
inactive: endpoint: mean survival time, dose: 6.25 mg/kg/injection, schedule: Q01DX001 (ip), vehicle: saline with Tween-80 109 % of control | endpoint: mean survival time, dose: 6.25 mg/kg/injection, schedule: Q01DX009 (ip), vehicle: saline with Tween-80 110 % of control | endpoint: mean survival time, dose: 12.5 mg/kg/injection, schedule: Q01DX001 (ip), vehicle: saline with Tween-80 114 % of control | endpoint: mean survival time, dose: 12.5 mg/kg/injection, schedule: Q01DX009 (ip), vehicle: saline with Tween-80 114 % of control | endpoint: mean survival time, dose: 25.0 mg/kg/injection, schedule: Q01DX001 (ip), vehicle: saline with Tween-80 115 % of control | [21] 112 % of control

CC1(C)OC2COC(c3cc(C(N)=O)n[nH]3)C2O1 (stereo not drawn)
inactive: [3] 106 % of control | [4] 101 % of control | [5] 105 % of control

O=c1c2ccccc2oc2ccccc12
inactive: [16] 95 % of control | [6] 100 % of control | [7] 93 % of control

CC(C)CCCC(C)C1CCC2C3CC(CO)C4CC(O)CCC4(C)C3CCC12C (stereo not drawn)
inactive: [12] 87 % of control | [13] 88 % of control

CCOC(=O)Oc1c(OC)cc(C(=O)O[C@@H]2C[C@@H]3CN4CCc5c([nH]c6cc(OC)ccc56)[C@H]4C[C@@H]3[C@H](C(=O)OC)[C@H]2OC)cc1OC
inactive: [21] 104 % of control | [6] 94 % of control | [12] 103 % of control

O=C(Cn1ccc(=O)[nH]c1=O)c1c[nH]c2ccccc12
inactive: [2] 108 % of control | [19] 108 % of control | [20] 104 % of control

O=C(OCCOC(=O)N1CCOCC1)N1CCOCC1
inactive: [2] 101 % of control | [19] 97 % of control | [20] 101 % of control

C=CCOCC(O)C[As](=O)(O)c1ccc(Cl)cc1 (stereo not drawn)
inactive: [17] 109 % of control | [18] 111 % of control

COC(=O)Nc1cccc(-c2nc3ccc(NC(=O)OC)cc3c(=O)n2-c2ccccc2)c1
inactive: [10] 114 % of control | [11] 91 % of control | endpoint: median survival time, dose: 50.0 mg/kg/injection, schedule: Q04DX003 (ip), vehicle: saline with Tween-80 101 % of control | endpoint: median survival time, dose: 100.0 mg/kg/injection, schedule: Q04DX003 (ip), vehicle: saline with Tween-80 103 % of control | endpoint: median survival time, dose: 200.0 mg/kg/injection, schedule: Q04DX003 (ip), vehicle: saline with Tween-80 100 % of control

C[Si](c1ccccc1)c1ccccc1
inactive: endpoint: mean survival time, dose: 100.0 mg/kg/injection, schedule: Q01DX001 (ip), vehicle: other 97 % of control | endpoint: mean survival time, dose: 200.0 mg/kg/injection, schedule: Q01DX001 (ip), vehicle: other 100 % of control | endpoint: mean survival time, dose: 400.0 mg/kg/injection, schedule: Q01DX001 (ip), vehicle: other 100 % of control

O=C(CNC(=O)Nc1ccc(F)cc1)NNC(=O)Nc1ccc(Cl)c([N+](=O)[O-])c1
inactive: [7] 92 % of control | [8] 88 % of control

C#CCOCCCC(=C)C
inactive: endpoint: mean survival time, dose: 100.0 mg/kg/injection, schedule: Q01DX001 (ip), vehicle: acetone 98 % of control

CCCCCCCCCSCCS
inactive: [2] 96 % of control | [19] 89 % of control | [20] 100 % of control
